Three compounds from ChEMBL document CHEMBL5584309, “Discovery of Novel Mcl-1 Inhibitors with a 3-Substituted-1H-indole-1-yl Moiety Binding to the P1-P3 Pockets to Induce Apoptosis in Acute Myeloid Leukemia Cells” (J Med Chem, 2024) can be followed below.

Molecules are shown by their SMILES.

The target of data set [1] is T1, Induced myeloid leukemia cell differentiation protein Mcl-1 (Homo sapiens, UniProt Q07820). Nature of the data set: Binding affinity to human MCL-1 measured by competition against fluorescently labelled BH3 - Bid measured after 6 hrs by fluorescent polarization assay.
Data set [2] can be described thus: Metabolic stability in rat liver microsomes assessed as half life by LC-MS/MS analysis. The class given is ADME, Microsome. As to conditions: liver microsomes. (In general: Liver microsomes are vesicles of endoplasmic reticulum, rich in cytochrome P450 enzymes.)
Data set [3] concerns the target T1, Induced myeloid leukemia cell differentiation protein Mcl-1. Nature of the data set: Binding affinity to Mcl-1 (unknown origin) pre-incubated for 30 mins followed by addition FAM-peptide further incubated for 20 mins by fluorescence polarization-based binding assay. The following applies: read-out: Ki. For orientation: In fluorescence polarisation assays a small probe gives low polarisation when free and higher when bound to something large.

The target in data set [4] is Apoptosis regulator Bcl-2 (Homo sapiens, UniProt P10415). Nature of the data set: Binding affinity to Bcl-2 (unknown origin) pre-incubated for 30 mins followed by addition FAM-peptide further incubated for 20 mins by fluorescence polarization-based binding assay.
For another data set, the system named is HL-60. Nature of the data set: Antiproliferative activity against human HL-60 cells assessed as growth inhibition measured after 72 hrs by CCK-8 assay. It counts as functional, cell-based. The following applies: HL-60, 72 h.
In a further data set the target is T2, Bcl-2-related protein A1 (Homo sapiens, UniProt Q16548).
T2 sequence (Q16548 whole entry): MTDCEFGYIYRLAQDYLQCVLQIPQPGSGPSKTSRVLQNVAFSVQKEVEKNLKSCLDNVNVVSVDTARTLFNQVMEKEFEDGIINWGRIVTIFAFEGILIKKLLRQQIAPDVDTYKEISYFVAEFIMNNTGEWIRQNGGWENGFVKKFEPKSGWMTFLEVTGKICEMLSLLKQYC
Nature of the data set: Binding affinity to Bfl-1 (unknown origin) pre-incubated for 30 mins followed by addition FAM-peptide further incubated for 20 mins by fluorescence polarization-based binding assay.

In another data set the target is Bcl-2-like protein 1 (Homo sapiens, UniProt Q07817). Nature of the data set: Binding affinity to Bcl-xL (unknown origin) pre-incubated for 30 mins followed by addition FAM-peptide further incubated for 20 mins by fluorescence polarization-based binding assay.
Chain of Bcl-2-like protein 1 (Q07817 whole entry): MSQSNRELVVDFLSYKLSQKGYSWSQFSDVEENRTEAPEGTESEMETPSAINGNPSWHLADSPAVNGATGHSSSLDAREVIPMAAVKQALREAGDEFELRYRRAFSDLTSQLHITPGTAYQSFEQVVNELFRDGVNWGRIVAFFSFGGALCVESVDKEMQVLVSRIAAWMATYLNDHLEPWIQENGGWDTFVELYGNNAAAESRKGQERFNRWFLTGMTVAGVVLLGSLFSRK

T1 sequence (Q07820 whole entry): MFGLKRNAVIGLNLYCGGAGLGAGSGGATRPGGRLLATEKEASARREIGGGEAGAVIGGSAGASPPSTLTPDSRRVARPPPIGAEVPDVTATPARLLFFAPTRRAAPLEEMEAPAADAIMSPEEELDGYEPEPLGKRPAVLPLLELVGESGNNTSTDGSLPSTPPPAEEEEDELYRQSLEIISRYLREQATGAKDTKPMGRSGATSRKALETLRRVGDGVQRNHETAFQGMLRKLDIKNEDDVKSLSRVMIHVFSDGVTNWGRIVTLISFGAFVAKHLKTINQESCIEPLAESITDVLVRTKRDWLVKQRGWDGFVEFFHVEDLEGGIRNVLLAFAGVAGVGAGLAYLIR
Chain of Apoptosis regulator Bcl-2 (P10415 whole entry): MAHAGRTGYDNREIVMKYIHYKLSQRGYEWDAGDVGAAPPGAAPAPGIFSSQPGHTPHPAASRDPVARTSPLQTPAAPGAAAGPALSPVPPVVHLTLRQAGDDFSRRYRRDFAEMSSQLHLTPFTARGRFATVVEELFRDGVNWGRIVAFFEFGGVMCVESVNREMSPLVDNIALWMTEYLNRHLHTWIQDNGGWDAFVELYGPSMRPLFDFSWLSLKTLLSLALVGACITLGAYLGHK

Consider `CC1(C)CC[C@@H](OC(=O)/C=C/c2ccccc2)C2C(C=O)C(C=O)C[C@H](O)[C@H]21` (some centres not stated), for which, in data set [1], the Ki (commonly a measure of affinity in units of concentration, obtained from inhibition or displacement) turned out to be 0.3 µM.

Take `O=C(O)Cc1ccccc1Nc1c(Cl)cccc1Cl` [DICLOFENAC]: the half-life (usually the time in which the quantity being followed falls by half) in data set [2] was 11.7 min.

Consider `Cc1cc(OCCCc2c(C(=O)O)n(CCN3CCOCC3)c3c(-c4ccccc4Cn4cc(CCNC(=O)c5ccc(F)cc5)c5ccccc54)cccc23)cc(C)c1Cl`, for which the Ki in data set [3] came out at 0.037 µM. For the same compound, the IC50 – broadly, the concentration that inhibits the measured activity by half – in data set [4] was over 100 µM; in the data set with HL-60 it was 7.96 µM; at Bcl-2-related protein A1, over 10 µM; on Bcl-2-like protein 1, over 100 µM.
